Assay results from patent US20130324606A1, “Ester Derivatives of Bimatoprost Compositions and Methods” (ALLERGAN, INC., priority 2011, published 2013).

Experiments:
[1] = test system: mouse skin; test: Pathology assessment of mouse hair regrowth model; format: in vivo, mice; conditions: histology, 0.03% active, vehicle control still in growth phase
From the text: Histological samples from test subjects employed in the studies described in Example 12 were obtained for pathology assessment.

[2] = test system: human hair dermal papilla cells, HHDPC; test: Cellular dielectric spectroscopy (CDS) in dermal papilla cells; format: cell-based; conditions: for EC50: cell impedance, tested range 10^−4 to 10^−13 mol/L
Protocol: Cellular dielectric spectroscopy (CDS) was conducted in an assay of dermal papilla cells (i.e., human hair dermal papilla cells, HHDPC) with bimatoprost and Cmpds IVc and IVb. As known in the art, CDS is a real-time, non-invasive, label-free, high-throughput, cell-based assay which measures electrical cell impedance. Without wishing to be bound by any theory, it is believed that GPCR activation induces changes in cell morphology, cell-cell interaction, and cell adherence which manifest as a change in cell impedance.

[3] = Compound distribution in mouse skin by MALDI-MS imaging; format: in vivo; conditions: topical dermal, once daily 3 days, 4 hr after day-3 dosing
Protocol: In order to determine the penetration, accumulation and/or differential distribution of bimatoprost and compounds disclosed herein upon dermal administration, MALDI-MS (matrix assisted laser desorption ionization mass spectroscopy) imaging was conducted on explanted samples of mouse skin after topical dermal administration.
MALDI-MS imaging was conducted on mouse skin strips after administration of bimatoprost or compound disclosed herein once daily for 3 days. Samples of mouse skin were recovered 4 hr after day-3 dosing of compound. Dermal administration was conducted with vehicle, 0.03% bimatoprost, 3% bimatoprost, 0.03% Cmpd IVa, and 3% Cmpd IVa.
FIG. 16A depicts a typical explanted sample of mouse skin for these studies, wherein Cmpd IVa was applied via dermal administration. FIG. 16B depicts the result of MALDI-MS imaging. The intensity of each pixel within FIG. 16B reflects the concentration of Cmpd IVa at the corresponding point in the image depicted in FIG. 16A. FIG. 16C depicts a representative mass spectrum, corresponding to the region of FIG. 16B indicated by the white circle within FIG. 16B. Accordingly, each pixel of the image of FIG. 16B has an associated mass spectrum, providing the amounts of bimatoprost or other administered compound or metabolite thereof.

[4] = Pharmacokinetic assessment of mouse hair regrowth model; format: in vivo; conditions: mice, 0.03% dermal daily ~60 uL, all measured time points, LC/MS-MS
Protocol: Female C57BL/6J mice (n=2) were assayed per time point per treatment group. Treatment groups: (1) vehicle; (2) 0.03% Cmpd IVa; (3) 0.03% Cmpd IIIb; (4) 0.03% Cmpd IVb; (5) 0.03% bimatoprost. Treatment dosing: dermal daily application of ˜60 uL test compound solution. Blood and skin pharmacokinetic time points were obtained at day 1 (1, 4, 8 and 24-hrs post-dose); day 2 (24-hrs post-dose); day 14 (24-hrs post-dose); and day 42 (28 days post day 14 dose). Bioanalysis employed LC/MS-MS.

[5] = Partitioning in artificial sebum; format: physicochemical; conditions: for phase in which the majority of compound remains: artificial sebum / aqueous solution; for Ave. Ksebum (artificial sebum and water partition coefficient): n = 4, 16 hr at 37° C.
Protocol: Compounds bimatoprost, Cmpd IVa, and Cmpd IIIb were added to aqueous solution (1 mL, 2-20 ug/mL), with and without 1-20 mg artificial sebum. Samples were shaken for 16 hr at 37° C. Samples were then centrifuged (8000 RPM) for 15 min at room temperature, prior to collection of the aqueous solution. Samples were analyzed for concentration of compound without artificial sebum (i.e., Co) and with artificial sebum (i.e., Ci) by mass spectroscopy. Artificial sebum and water partition coefficient (Ksebum) was expressed as the concentration of drug in 1 g of artificial sebum divided by the concentration of drug in 1 g of aqueous solution, and was calculated as Ksebum=(Co−Ci)Waqueous/(Ci×Wsebum) (Eqn. 1), where W represents weight.
Artificial sebum was prepared as follows: 15% (w/w) squalene, 15% spermaceti, 10% coconut oil, 1.5% oleic acid, 5% palmitic acid, 2.4% cholesterol oleate, 10% paraffin wax, 10% olive oil, 25% cottonseed oil, 5% palmitoleic acid, 1.2% cholesterol. The melting point of the semi-liquid was 37° C.

[6] = test system: C57Black/6J mice; test: Piliation (hair regrowth) studies in mice; format: in vivo; conditions: for days for hair growth to commence (day of onset of hair growth) / days for full hair growth to be achieved: 0.03%, topical QD 14 days, vehicle 50% propylene glycol, 30% ethanol, 20% water; for days for hair growth to commence (day of onset of hair growth): FIG. 6A; for days for full hair growth to be achieved: FIG. 6B; for pharmacological efficacy relative to bimatoprost: mouse hair regrowth, vehicle Formulation A
Protocol: C57Black/6J, 7-week old female mice (n=10) were employed in piliation studies. Dorsal hair was shaved (area ˜2 cm×4 cm). Dosing of active agent was once per day (QD) by topical administration for 14 days. Observations were conducted for 42-days to determine onset of new hair growth and day of hair growth completion. Compounds were formulated as either a) 50% propylene glycol, 30% ethanol, 20% water, or b) the formulation of Formulation A described above. The experiments reported for FIGS. 4A-4B, 5A-5B, 6A-6B, 8A-8B, and 9A-9B were conducted using a vehicle with formulation of 50% propylene glycol, 30% ethanol, 20% water. The experiments reported for FIGS. 7A-7B were conducted using a vehicle of Formulation A described above.
For each of FIGS. 4A, 5A, 6A, 7A, 8A and 9A, the histograms depict the day of onset of hair growth. For each of FIGS. 4B, 5B, 6B, 7B, 8B and 9B, the histograms depict the day achieving full hair growth.

[7] = In vitro human skin penetration (Franz diffusion chamber); format: in vitro ADME; conditions: for Percentage Dose Applied, Receptor Chamber Solution, Prodrug / Percentage Dose Applied, Upper ⅓ Dermis, Prodrug / skin penetration (cumulative amount in receptor solution) relative to bimatoprost / penetration flux relative to bimatoprost: 0.03% in Formulation A; for Percentage Dose Applied, Receptor Chamber Solution, Prodrug: Franz chamber; for Percentage Dose Applied, Receptor Chamber Solution, Prodrug / Percentage Dose Applied, Upper ⅓ Dermis, Prodrug: dosed compound; for Percentage Dose Applied, Upper ⅓ Dermis, Prodrug: dermis at 48 hrs; for skin penetration (cumulative amount in receptor solution) relative to bimatoprost: FIG. 13A; for penetration flux relative to bimatoprost: FIG. 13B; for conversion to bimatoprost in the SC/Epi/Dermis layers: FIG. 15A; for amount of active agent in the upper third of the dermis relative to bimatoprost: FIG. 15B
From the text: Test material: Dermatomed ex vivo human cadaver posterior trunk skin on 1.0 cm^2 Franz diffusion chamber as known in the art. Test size: 3 skin donors (obtained from New York Firefighters Skin Bank), 3 replicates per donor per formulation. Test formulations: 0.03% active agent (Cmpd IVa, Cmpd IIIb, Cmpd IVb) in Formulation A; control formulation: bimatoprost at 0.03% in Formulation A. Dosing regimen: receptor fluid at 2, 4, 24, and 48 hrs; SC/epidermis and dermis at 48 hrs. Sample analysis: LC/MS-MS to detect bimatoprost and Cmpds IVa, IIIb and IVb.

[8] = as above; format: in vitro ADME; conditions: FIGS. 14A-14C, 6, 24, 48 hr
[9] = test system: reconstructed human epidermis (RHE); test: In vitro dermal irritation screening in reconstructed human epidermis; format: cell-based; conditions: concentration 0.03%, Formulation A vehicle
Protocol: In vitro irritation screening assays were conducted for compounds described herein. Test system was the reconstructed human epidermis (RHE), as known in the art. Single dosing was employed, and endpoints were evaluated as a function of time up to 24-hrs. Endpoints were tissue viability and IL-1α release.
Test compounds included Cmpds IVa (0.03%), IIIb (0.03%), IVb (0.03%), bimatoprost (0.03%), minoxidil (5%, foam), and minoxidil (5%, solution). Administration of Cmpds IVa, IIIb, IVb and bimatoprost employed the vehicle of Formulation A. See Table 1 above. Administration of minoxidil employed minoxidil vehicle with formulation 20% H2O, 50% propylene glycol, and 30% ethanol.

[10] = microAmes mutagenesis screen; format: cell-based; conditions: with or without metabolic activation
From the text: Cmpds IVa, IIIb, and IVb were subjected to the microAmes screen, as known in the art.

[11] = Formulation and stability studies; format: physicochemical; conditions: variations of Formulation A, 0.03% active, pH 4, 5, 6 and 7; 25, 40 and 60° C.; zero time and 80-days
Protocol: Stability over time of compounds disclosed herein was determined in formulation as a function of temperature and pH. Variations of Formulation A described herein were employed wherein the target concentration of active agent was 0.03%, and the pH was varied at pH 4, 5, 6 and 7. Temperatures of 25° C., 40° C. and 60° C. were maintained during the experiment. Samples were evaluated at zero time and 80-days.
Cmpds IVa, IIIb, and IVb for evaluated for stability.
FIGS. 1A-1B, 2A-2B, and 3A-3B depict histograms of relative concentrations of test compounds (arbitrary scale) at zero time or 80-days. FIG. 1A depicts a histogram of the stability profile of Cmpd IVa as a function of pH and temperature. FIG. 1B depicts a histogram of the formation of bimatoprost as a function of pH and temperature after 80-days for Cmpd IVa. FIG. 2A depicts a histogram of the stability profile of Cmpd IVb as a function of pH and temperature. FIG. 2B depicts a histogram of the formation of bimatoprost as a function of pH and temperature after 80-days for Cmpd IVb. FIG. 3A depicts a histogram of the stability profile of Cmpd IIIb as a function of pH and temperature. FIG. 3B depicts a histogram of the formation of bimatoprost as a function of pH and temperature after 80-days for Cmpd IIIb.

[12] = Dermal tolerability in rats; format: in vivo; conditions: female rats; for change in food consumption and body weight gain (in words): 3 mg/kg/day daily for 8 days; for Body Weight Gain (g) Mean ± SD / Food Consumption (g) Mean ± SD: dermal 3 mg/kg/day daily for 8 days, Formulation A
Protocol: Female rats were administered either vehicle or one of Cmpds IVa, IIIb, or IVb daily for 8 days. The administered dose was 3 mg/kg/day, at a concentration of 3 mg/mL. Observed data were body weight, viability, food consumption, and dermal observation (skin reaction grading), as known in the art. The vehicle was Formulation A. See Table 1 above.

| Structure (SMILES) | hair cycle phase at day-42 [1] | change in cell impedance [2] | EC50 [2] | level in the systemic circulation [4] | phase in which the majority of compound remains [5] | Ave. Ksebum (artificial sebum and water partition coefficient) [5] | days for hair growth to commence (day of onset of hair growth) [6] | days for full hair growth to be achieved [6] | Percentage Dose Applied, Receptor Chamber Solution, Prodrug [7] | Percentage Dose Applied, Upper ⅓ Dermis, Prodrug [7] | conversion to bimatoprost in the receptor chamber solution [8] | potential for irritation of the human skin [9] | mutagenicity in microAmes screen [10] | stability in formulation [11] | pharmacological efficacy relative to bimatoprost [6] | change in food consumption and body weight gain (in words) [12] | Body Weight Gain (g) Mean ± SD [12] | Food Consumption (g) Mean ± SD [12] | skin penetration (cumulative amount in receptor solution) relative to bimatoprost [7] | penetration flux relative to bimatoprost [7] | also measured |
| --- | --- | --- | --- | --- | --- | --- | --- | --- | --- | --- | --- | --- | --- | --- | --- | --- | --- | --- | --- | --- | --- |
| CCNC(=O)CCC/C=C\C[C@@H]1[C@@H](/C=C/[C@@H](O)CCc2ccccc2)[C@H](O)C[C@@H]1O [bimatoprost, (Z)-7-((1R,2R,3R,5S)-3,5-dihydroxy-2-((S,E)-3-hydroxy-5-phenylpent-1-enyl)cyclopentyl)-N-ethylhept-5-enamide] | returned to the resting phase | characteristic change in cell impedance | 3.0 to 6.3×10^−7 mol/L | most undetectable | remain in the aqueous phase | 3.6 | 22 days | 44 days | 1.1 Percentage Dose Applied | 7.0 Percentage Dose Applied | – | – | – | – | – | – | – | – | – | – | levels of bimatoprost in skin after 3.0% bimatoprost versus after 3.0% Cmpd IVa [3]: much higher |
| CCNC(=O)CCC/C=C\C[C@@H]1[C@@H](/C=C/[C@H](CCc2ccccc2)OC(=O)CC)[C@H](O)C[C@@H]1O [Cmpd IVb, 15-propionyl-bimatoprost] | returned to the resting phase | not observed to provide a change in cell impedance | could not be determined | most undetectable | – | – | 16 days | 32 days | 2.1 Percentage Dose Applied | 1.9 Percentage Dose Applied | observed to convert to bimatoprost | no indication of potential for irritation | not mutagenic | stable in formulation | approximately equivalent efficacy | decreases in both food consumption and body weight gain | 0.3 ± 6.7 g | 19.19 ± 1.32 g | significantly greater than for bimatoprost | greater than that for bimatoprost | activity in the time required to regain full hair growth (ranking) ([6]; among compounds tested at 0.03%): best activity; conversion to bimatoprost in the SC/Epi/Dermis layers [7]: converted to bimatoprost; amount of active agent in the upper third of the dermis relative to bimatoprost [7]: less than observed for bimatoprost |
| CCNC(=O)CCC/C=C\C[C@@H]1[C@@H](/C=C/[C@@H](O)CCc2ccccc2)[C@H](OC(=O)CC)C[C@@H]1O [Cmpd IIIb, 11-propionyl bimatoprost] | returned to the resting phase | – | – | most undetectable | remain in the aqueous phase | 6.1 | – | – | 0.8 Percentage Dose Applied | 2.1 Percentage Dose Applied | observed to convert to bimatoprost | no indication of potential for irritation | not mutagenic | stable in formulation | approximately equivalent efficacy | no significant change in food consumption or body weight gain | 10.0 ± 6.1 g | 22.8 ± 1.36 g | significantly greater than for bimatoprost | greater than that for bimatoprost | dermal observation: signs of irritation ([12]; 3 mg/kg/day, days 2-4): minimal and transient signs of irritation; conversion to bimatoprost in the SC/Epi/Dermis layers [7]: converted to bimatoprost; amount of active agent in the upper third of the dermis relative to bimatoprost [7]: less than observed for bimatoprost |
